Experimental data reported in ChEMBL document CHEMBL1158870, “Antitumor agents. 180. Chemical Studies and cytotoxic evaluation of cumingianosides and cumindysoside A, antileukemic triterpene glucosides with a 14,18-cycloapotirucallane skeleton” (1997).

Key:
[1] = system: Leukemia cell; experiment: Cytotoxicity against human Leukemia cells by SRB assay; type: functional
[2] = system: A549; experiment: Cytotoxicity against human A549 cells by SRB assay; type: functional
[3] = system: UACC-257; experiment: Cytotoxicity against human UACC257 cells by SRB assay; type: functional
[4] = system: LOX IMVI; experiment: Cytotoxicity against human LOXIMVI cells by SRB assay; type: functional
[5] = system: UACC-62; experiment: Cytotoxicity against human UACC62 cells by SRB assay; type: functional
[6] = system: NCI-H226; experiment: Cytotoxicity against human NCI-H226 cells by SRB assay; type: functional
[7] = Cytotoxicity against human prostate cancer cells by SRB assay; type: functional; details: Cancer cell lines
[8] = system: MCF7; experiment: Cytotoxicity against human MCF7 cells by SRB assay; type: functional
[9] = system: SK-MEL-5; experiment: Cytotoxicity against human SK-MEL-5 cells by SRB assay; type: functional
[10] = system: NSCLC; experiment: Cytotoxicity against human NSCLC cells by SRB assay; type: functional
[11] = system: T47D; experiment: Cytotoxicity against human T47D cells by SRB assay; type: functional
[12] = system: MDA-MB-231; experiment: Cytotoxicity against human MDA-MB-231 cells by SRB assay; type: functional
[13] = system: SW-620; experiment: Cytotoxicity against human SW620 cells by SRB assay; type: functional
[14] = system: OVCAR-5; experiment: Cytotoxicity against human OVCAR5 cells by SRB assay; type: functional
[15] = system: UO-31; experiment: Cytotoxicity against human UO31 cells by SRB assay; type: functional
[16] = Cytotoxicity against human Hs 578T cells by SRB assay; type: functional
[17] = system: CCRF-CEM; experiment: Cytotoxicity against human CCRF-CEM cells by SRB assay; type: functional
[18] = system: BT-549; experiment: Cytotoxicity against human BT549 cells by SRB assay; type: functional
[19] = Cytotoxicity against human breast cancer cells by SRB assay; type: functional; details: Cancer cell lines
[20] = system: COLO 205; experiment: Cytotoxicity against human COLO205 cells by SRB assay; type: functional
[21] = system: HCC 2998; experiment: Cytotoxicity against human HCC2998 cells by SRB assay; type: functional
[22] = system: NCI-H23; experiment: Cytotoxicity against human NCI-H23 cells by SRB assay; type: functional
[23] = system: MDA-MB-435; experiment: Cytotoxicity against human MDA-MB-435 cells by SRB assay; type: functional
[24] = system: PC-3; experiment: Cytotoxicity against human PC3 cells by SRB assay; type: functional
[25] = Cytotoxicity against human CNS cancer cells by SRB assay; type: functional; details: Cancer cell lines
[26] = system: M14; experiment: Cytotoxicity against human M14 cells by SRB assay; type: functional
[27] = Cytotoxicity against human MCF7/ADR cells by SRB assay; type: functional; details: NCI/ADR-RES
[28] = system: HOP-92; experiment: Cytotoxicity against human HOP92 cells by SRB assay; type: functional
[29] = system: RXF 393; experiment: Cytotoxicity against human RXF393 cells by SRB assay; type: functional
[30] = system: CAKI-1; experiment: Cytotoxicity against human Caki1 cells by SRB assay; type: functional
[31] = system: Malme-3M; experiment: Cytotoxicity against human MALME-3M cells by SRB assay; type: functional
[32] = system: MDA-N; experiment: Cytotoxicity against human MDA-N cells by SRB assay; type: functional
[33] = system: DU-145; experiment: Cytotoxicity against human DU145 cells by SRB assay; type: functional
[34] = system: OVCAR-3; experiment: Cytotoxicity against human OVCAR-3 cells by SRB assay; type: functional
[35] = system: SNB-19; experiment: Cytotoxicity against human SNB19 cells by SRB assay; type: functional
[36] = system: A498; experiment: Cytotoxicity against human A498 cells by SRB assay; type: functional
[37] = system: MOLT-4; experiment: Cytotoxicity against human MOLT4 cells by SRB assay; type: functional
[38] = system: HCT-15; experiment: Cytotoxicity against human HCT15 cells by SRB assay; type: functional
[39] = system: SF-295; experiment: Cytotoxicity against human SF295 cells by SRB assay; type: functional
[40] = system: SK-OV-3; experiment: Cytotoxicity against human SKOV3 cells by SRB assay; type: functional
[41] = system: HT-29; experiment: Cytotoxicity against human HT29 cells by SRB assay; type: functional
[42] = system: RPMI-8226; experiment: Cytotoxicity against human RPMI8226 cells by SRB assay; type: functional
[43] = Cytotoxicity against human melanoma cells by SRB assay; type: functional; details: Melanoma cell
[44] = Cytotoxicity against human ovarian cancer cells by SRB assay; type: functional; details: Cancer cell lines
[45] = Cytotoxicity against human Colon cancer cells by SRB assay; type: functional; details: Cancer cell lines
[46] = Cytotoxicity against human 786-O cells by SRB assay; type: functional; details: 786-0
[47] = system: KM12; experiment: Cytotoxicity against human KM12 cells by SRB assay; type: functional
[48] = system: OVCAR-4; experiment: Cytotoxicity against human OVCAR4 cells by SRB assay; type: functional
[49] = system: HCT-116; experiment: Cytotoxicity against human HCT116 cells by SRB assay; type: functional
[50] = system: SN12C; experiment: Cytotoxicity against human SN12C cells by SRB assay; type: functional
[51] = system: SR; experiment: Cytotoxicity against human SR cells by SRB assay; type: functional
[52] = system: NCI-H522; experiment: Cytotoxicity against human NCI-H522 cells by SRB assay; type: functional
[53] = system: SK-MEL-2; experiment: Cytotoxicity against human SK-MEL-2 cells by SRB assay; type: functional
[54] = system: K562; experiment: Cytotoxicity against human K562 cells by SRB assay; type: functional
[55] = system: SF-268; experiment: Cytotoxicity against human SF268 cells by SRB assay; type: functional
[56] = system: ACHN; experiment: Cytotoxicity against human ACHN cells by SRB assay; type: functional
[57] = system: SNB-75; experiment: Cytotoxicity against human SNB75 cells by SRB assay; type: functional
[58] = system: SK-MEL-28; experiment: Cytotoxicity against human SK-MEL-28 cells by SRB assay; type: functional
[59] = system: NCI-H322M; experiment: Cytotoxicity against human NCI-H322M cells by SRB assay; type: functional
[60] = Cytotoxicity against human HL60(TB) cells by SRB assay; type: functional, HL-60(TB); details: HL-60
[61] = system: U-251; experiment: Cytotoxicity against human U251 cells by SRB assay; type: functional
[62] = system: EKVX; experiment: Cytotoxicity against human EKVX cells by SRB assay; type: functional
[63] = system: OVCAR-8; experiment: Cytotoxicity against human OVCAR8 cells by SRB assay; type: functional
[64] = Cytotoxicity against human renal cancer cells by SRB assay; type: functional; details: Cancer cell lines
[65] = system: HOP-62; experiment: Cytotoxicity against human HOP62 cells by SRB assay; type: functional
[66] = system: IGROV-1; experiment: Cytotoxicity against human IGROV1 cells by SRB assay; type: functional
[67] = system: NCI-H460; experiment: Cytotoxicity against human NCI-H460 cells by SRB assay; type: functional

Compound: C=C1[C@@H](O)C[C@@]23CC[C@@H]4[C@@]5(C)CC[C@@H](OC(C)=O)C(C)(C)[C@@H]5C[C@@H](O[C@@H]5O[C@H](COC(C)=O)[C@@H](O)[C@H](O)[C@H]5O)[C@@]4(C)C2=CC[C@H]3[C@H]1C
- TGI [1]: 8.7 µM
- GI50 [2]: 4.79 µM
- GI50 [3]: 10.2 µM
- GI50 [4]: 3.98 µM
- GI50 [5]: 7.08 µM
- GI50 [6]: 6.03 µM
- TGI [7]: 18.3 µM
- GI50 [8]: 1.51 µM
- GI50 [9]: 6.03 µM
- TGI [10]: 23.4 µM
- GI50 [11]: 7.24 µM
- GI50 [12]: 7.76 µM
- GI50 [13]: 7.24 µM
- TGI [13]: 24.2 µM
- GI50 [14]: 2.09 µM
- GI50 [15]: 13.8 µM
- GI50 [16]: 4.9 µM
- GI50 [17]: 2.57 µM
- GI50 [18]: 11.5 µM
- TGI [19]: 21.5 µM
- GI50 [20]: 1.78 µM
- TGI [20]: 3.3 µM
- GI50 [21]: 1.58 µM
- TGI [21]: 3.5 µM
- GI50 [22]: 9.55 µM
- GI50 [23]: 4.79 µM
- GI50 [24]: 3.47 µM
- TGI [25]: 16.9 µM
- GI50 [26]: 3.55 µM
- GI50 [27]: 17.8 µM
- GI50 [28]: 10.7 µM
- GI50 [29]: 3.98 µM
- GI50 [30]: 13.2 µM
- GI50 [31]: 11.5 µM
- GI50 [32]: 5.13 µM
- GI50 [33]: 10.7 µM
- GI50 [34]: 2.82 µM
- GI50 [35]: 5.5 µM
- GI50 [36]: 14.8 µM
- GI50 [37]: 1.95 µM
- GI50 [38]: 11.5 µM
- TGI [38]: 27.5 µM
- GI50 [39]: 4.17 µM
- GI50 [40]: 11.7 µM
- GI50 [41]: 2.34 µM
- TGI [41]: 5.9 µM
- GI50 [42]: 2.95 µM
- TGI [43]: 19.1 µM
- TGI [44]: 17.6 µM
- TGI [45]: 11.3 µM
- GI50 [46]: 5.25 µM
- GI50 [47]: 1.55 µM
- TGI [47]: 4.8 µM
- GI50 [48]: 3.98 µM
- GI50 [49]: 3.47 µM
- TGI [49]: 9.8 µM
- GI50 [50]: 6.03 µM
- GI50 [51]: 2.34 µM
- GI50 [52]: 7.41 µM
- GI50 [53]: 2.09 µM
- GI50 [54]: 3.09 µM
- GI50 [55]: 6.61 µM
- GI50 [56]: 7.08 µM
- GI50 [57]: 2.19 µM
- GI50 [58]: 8.32 µM
- GI50 [59]: 12.9 µM
- GI50 [60]: 2.75 µM
- GI50 [61]: 2.82 µM
- GI50 [62]: 10 µM
- GI50 [63]: 6.61 µM
- TGI [64]: 22.1 µM
- GI50 [65]: 12.9 µM
- GI50 [66]: 4.79 µM
- GI50 [67]: 4.27 µM
